Assay results as given in patent publication US20230092890A1, “1, 3, 4-Oxadiazole derivative compounds as histone deacetylase 6 inhibitor, and the pharmaceutical composition comprising the same” (Chong Kun Dang Pharmaceutical Corp., priority 2019, published 2023).

Assays:
[1] = target: T1, HDAC6 human recombinant (Homo sapiens, UniProt Q9UBN7); assay: HDAC enzyme activity inhibition (in vitro), HDAC6 assay; assay type: biochemical; conditions: samples at 0.1, 1, 10, 100 and 1000 nM; 37° C. 60 minutes; fluorescence Ex 390, Em 460; read-out: HDAC6 IC50
T1 construct: purchased Calbiochem 382180
T1 sequence (Q9UBN7 1-1215): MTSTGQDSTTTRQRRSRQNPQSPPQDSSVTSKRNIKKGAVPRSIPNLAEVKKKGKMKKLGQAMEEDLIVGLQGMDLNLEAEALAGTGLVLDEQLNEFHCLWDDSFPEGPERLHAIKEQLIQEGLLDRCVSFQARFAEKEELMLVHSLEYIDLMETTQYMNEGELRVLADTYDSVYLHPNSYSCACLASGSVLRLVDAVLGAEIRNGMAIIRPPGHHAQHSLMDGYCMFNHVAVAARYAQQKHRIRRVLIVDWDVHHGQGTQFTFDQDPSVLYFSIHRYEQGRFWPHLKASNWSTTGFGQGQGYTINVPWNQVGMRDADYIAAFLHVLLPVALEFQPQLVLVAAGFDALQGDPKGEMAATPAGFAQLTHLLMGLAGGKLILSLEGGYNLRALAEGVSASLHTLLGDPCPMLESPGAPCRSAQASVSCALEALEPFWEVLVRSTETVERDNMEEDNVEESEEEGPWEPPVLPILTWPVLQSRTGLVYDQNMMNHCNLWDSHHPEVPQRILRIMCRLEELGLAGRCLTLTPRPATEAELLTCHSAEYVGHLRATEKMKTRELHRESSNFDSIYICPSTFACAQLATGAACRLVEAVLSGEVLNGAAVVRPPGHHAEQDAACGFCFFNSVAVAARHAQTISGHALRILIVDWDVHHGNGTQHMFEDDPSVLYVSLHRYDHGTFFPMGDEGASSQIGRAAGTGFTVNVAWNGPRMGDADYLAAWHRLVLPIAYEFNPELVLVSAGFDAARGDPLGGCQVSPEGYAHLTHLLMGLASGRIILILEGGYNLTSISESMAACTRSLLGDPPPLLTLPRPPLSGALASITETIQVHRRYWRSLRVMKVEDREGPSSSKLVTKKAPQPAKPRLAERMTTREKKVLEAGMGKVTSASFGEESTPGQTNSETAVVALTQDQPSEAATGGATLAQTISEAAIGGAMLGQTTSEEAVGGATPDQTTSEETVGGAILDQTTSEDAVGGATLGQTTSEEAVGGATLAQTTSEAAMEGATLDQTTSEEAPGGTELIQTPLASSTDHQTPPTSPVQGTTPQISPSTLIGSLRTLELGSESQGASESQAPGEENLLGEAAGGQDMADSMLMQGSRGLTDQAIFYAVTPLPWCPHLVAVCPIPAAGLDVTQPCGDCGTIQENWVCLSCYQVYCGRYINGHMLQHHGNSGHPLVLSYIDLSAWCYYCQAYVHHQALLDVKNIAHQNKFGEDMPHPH
How it was run: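 HDAC6 human recombinant enzyme with fluorimetric substrate; […]. Reaction 60 min at 37° C, then developer 30 min at 37° C; fluorescence read at Ex 390/Em 460.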

[2] = target: T2, HDAC1 (Homo sapiens, UniProt Q13547); assay: HDAC enzyme activity inhibition (in vitro), HDAC1 Fluorimetric Drug Discovery Assay Kit; assay type: biochemical; conditions: samples at 100, 1000 and 10000 nM; 37° C. 60 minutes; fluorescence Ex 390, Em 460; read-out: HDAC1 IC50
T2 construct: purchased Enzolifesciences BML-AK511
How it was run: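 Compound incubated with enzyme 60 min at 37° C, then developer 30 min at 37° C; fluorescence read at Ex 390/Em 460. HDAC1 via fluorimetric kit, compounds at 100, 1000 and 10000 nM; HDAC6 human recombinant, compounds at 0.1, 1, 10, 100 and 1000 nM.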

T2 sequence (Q13547 whole entry): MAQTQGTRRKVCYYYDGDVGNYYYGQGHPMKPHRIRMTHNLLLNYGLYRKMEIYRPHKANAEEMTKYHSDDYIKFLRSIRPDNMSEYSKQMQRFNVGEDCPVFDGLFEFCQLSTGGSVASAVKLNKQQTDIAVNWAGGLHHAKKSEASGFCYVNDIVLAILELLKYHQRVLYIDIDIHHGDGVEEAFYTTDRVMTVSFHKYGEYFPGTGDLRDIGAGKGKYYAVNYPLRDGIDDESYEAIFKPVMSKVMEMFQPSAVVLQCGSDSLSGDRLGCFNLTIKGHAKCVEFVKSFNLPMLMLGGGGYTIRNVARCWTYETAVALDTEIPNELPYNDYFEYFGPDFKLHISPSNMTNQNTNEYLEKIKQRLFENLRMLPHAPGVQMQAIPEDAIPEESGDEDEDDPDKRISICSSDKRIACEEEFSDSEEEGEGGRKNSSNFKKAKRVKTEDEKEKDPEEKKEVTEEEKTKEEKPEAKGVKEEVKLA

Row | SMILES | IC50 [1] | IC50 [2]
1 | CN1CCC(n2c(=O)n(Cc3ccc(-c4nnc(C(F)F)o4)cc3F)c3cc(F)c(Br)cc32)CC1 [Compound 113, 5-bromo-1-(4-(5-(difluoromethyl)-1,3,4-oxadiazole-2-yl)-2-fluorobenzyl)-6-fluoro-3-(1-methylpiperidine-4-yl)-1,3-dihydro-2H-benzo[d]imidazole-2-one] | 65 nM | > 10000 nM
2 | CN1CCC(n2c(=O)n(Cc3ccc(-c4nnc(C(F)F)o4)cc3F)c3cc(F)c(-c4ccco4)cc32)CC1 [Compound 114, 1-(4-(5-(difluoromethyl)-1,3,4-oxadiazole-2-yl)-2-fluorobenzyl)-6-fluoro-5-(furan-2-yl)-3-(1-methylpiperidine-4-yl)-1,3-dihydro-2H-benzo[d]imidazole-2-one] | 88 nM | > 10000 nM
3 | CN1CCC(n2c(=O)n(Cc3ccc(-c4nnc(C(F)F)o4)cc3F)c3cc(F)c(-c4ccoc4)cc32)CC1 [Compound 115, 1-(4-(5-(difluoromethyl)-1,3,4-oxadiazole-2-yl)-2-fluorobenzyl)-6-fluoro-5-(furan-3-yl)-3-(1-methylpiperidine-4-yl)-1,3-dihydro-2H-benzo[d]imidazole-2-one] | 77 nM | > 10000 nM
4 | CN1CCC(n2c(=O)n(Cc3ccc(-c4nnc(C(F)F)o4)cc3F)c3cc(F)c(-c4ccccc4F)cc32)CC1 [Compound 116, 1-(4-(5-(difluoromethyl)-1,3,4-oxadiazole-2-yl)-2-fluorobenzyl)-6-fluoro-5-(2-fluorophenyl)-3-(1-methylpiperidine-4-yl)-1,3-dihydro-2H-benzo[d]imidazole-2-one] | 84 nM | > 10000 nM
5 | CN1CCC(n2c(=O)n(Cc3ccc(-c4nnc(C(F)F)o4)cc3F)c3cc(F)c(-c4cccnc4)cc32)CC1 [Compound 117, 1-(4-(5-(difluoromethyl)-1,3,4-oxadiazole-2-yl)-2-fluorobenzyl)-6-fluoro-3-(1-methylpiperidine-4-yl)-5-(pyridine-3-yl)-1,3-dihydro-2H-benzo[d]imidazole-2-one] | 24 nM | > 10000 nM
6 | CN1CCC(n2c(=O)n(Cc3ccc(-c4nnc(C(F)F)o4)cc3F)c3cc(F)c(-c4ccncc4)cc32)CC1 [Compound 118, 1-(4-(5-(difluoromethyl)-1,3,4-oxadiazole-2-yl)-2-fluorobenzyl)-6-fluoro-3-(1-methylpiperidine-4-yl)-5-(pyridine-4-yl)-1,3-dihydro-2H-benzo[d]imidazole-2-one] | 42 nM | > 10000 nM
7 | CN1CCC(n2c(=O)n(Cc3ccc(-c4nnc(C(F)F)o4)cc3F)c3cc(Br)ccc32)CC1 [Compound 119, 5-bromo-3-(4-(5-(difluoromethyl)-1,3,4-oxadiazole-2-yl)-2-fluorobenzyl)-1-(1-methylpiperidine-4-yl)-1,3-dihydro-2H-benzo[d]imidazole-2-one] | 80 nM | > 10000 nM
8 | CN1CCC(n2c(=O)n(Cc3ccc(-c4nnc(C(F)F)o4)cc3F)c3cc(-c4cccc(F)c4)ccc32)CC1 [Compound 120, 3-(4-(5-(difluoromethyl)-1,3,4-oxadiazole-2-yl)-2-fluorobenzyl)-5-(3-fluorophenyl)-1-(1-methylpiperidine-4-yl)-1,3-dihydro-2H-benzo[d]imidazole-2-one] | 1310 nM | > 10000 nM
9 | CN1CCC(n2c(=O)n(Cc3ccc(-c4nnc(C(F)F)o4)cc3F)c3cc(-c4cc(F)ccc4F)ccc32)CC1 [Compound 121, 3-(4-(5-(difluoromethyl)-1,3,4-oxadiazole-2-yl)-2-fluorobenzyl)-5-(2,5-difluorophenyl)-1-(1-methylpiperidine-4-yl)-1,3-dihydro-2H-benzo[d]imidazole-2-one] | 3150 nM | > 10000 nM

The remaining lines, values ahead:

Row | IC50 [1] | IC50 [2] | SMILES
10 | > 5000 nM | > 10000 nM | CN1CCC(n2c(=O)n(Cc3ccc(-c4nnc(C(F)F)o4)cc3F)c3cc(-c4ccc(C(F)(F)F)cc4)ccc32)CC1 [Compound 122, 3-(4-(5-(difluoromethyl)-1,3,4-oxadiazole-2-yl)-2-fluorobenzyl)-1-(1-methylpiperidine-4-yl)-5-(4-(trifluoromethyl)phenyl)-1,3-dihydro-2H-benzo[d]imidazole-2-one]
11 | 950 nM | > 10000 nM | Cc1ccc(-c2ccc3c(c2)n(Cc2ccc(-c4nnc(C(F)F)o4)cc2F)c(=O)n3C2CCN(C)CC2)o1 [Compound 124, 3-(4-(5-(difluoromethyl)-1,3,4-oxadiazole-2-yl)-2-fluorobenzyl)-5-(5-methylfuran-2-yl)-1-(1-methylpiperidine-4-yl)-1,3-dihydro-2H-benzo[d]imidazole-2-one]
12 | 602 nM | > 10000 nM | CN1CCC(n2c(=O)n(Cc3ccc(-c4nnc(C(F)F)o4)cc3F)c3cc(-c4cccnc4)ccc32)CC1 [Compound 125, 3-(4-(5-(difluoromethyl)-1,3,4-oxadiazole-2-yl)-2-fluorobenzyl)-1-(1-methylpiperidine-4-yl)-5-(pyridine-3-yl)-1,3-dihydro-2H-benzo[d]imidazole-2-one]
13 | 29 nM | > 10000 nM | CN1CCC(n2c(=O)n(Cc3ccc(-c4nnc(C(F)F)o4)cc3)c3cc(Br)ccc32)CC1 [Compound 126, 5-bromo-3-(4-(5-(difluoromethyl)-1,3,4-oxadiazole-2-yl)benzyl)-1-(1-methylpiperidine-4-yl)-1,3-dihydro-2H-benzo[d]imidazole-2-one]
14 | 798 nM | > 10000 nM | CN1CCC(n2c(=O)n(Cc3ccc(-c4nnc(C(F)F)o4)cc3)c3cc(-c4cc(F)ccc4F)ccc32)CC1 [Compound 128]
15 | > 3000 nM | > 10000 nM | CN1CCC(n2c(=O)n(Cc3ccc(-c4nnc(C(F)F)o4)cc3)c3cc(-c4ccc(C(F)(F)F)cc4)ccc32)CC1 [Compound 129]
16 | 288 nM | > 10000 nM | Cc1ccc(-c2ccc3c(c2)n(Cc2ccc(-c4nnc(C(F)F)o4)cc2)c(=O)n3C2CCN(C)CC2)o1 [Compound 130]
17 | 606 nM | > 10000 nM | Cc1noc(C)c1-c1ccc2c(c1)n(Cc1ccc(-c3nnc(C(F)F)o3)cc1)c(=O)n2C1CCN(C)CC1 [Compound 131, 3-(4-(5-(difluoromethyl)-1,3,4-oxadiazole-2-yl)benzyl)-5-(3,5-dimethylisooxazole-4-yl)-1-(1-methylpiperidine-4-yl)-1,3-dihydro-2H-benzo[d]imidazole-2-one]
18 | 281 nM | > 10000 nM | CN1CCC(n2c(=O)n(Cc3ccc(-c4nnc(C(F)F)o4)cc3)c3cc(-c4cccnc4)ccc32)CC1 [Compound 132, 3-(4-(5-(difluoromethyl)-1,3,4-oxadiazole-2-yl)benzyl)-1-(1-methylpiperidine-4-yl)-5-(pyridine-3-yl)-1,3-dihydro-2H-benzo[d]imidazole-2-one]
19 | 20 nM | > 10000 nM | CN1CCC(n2c(=O)n(Cc3ccc(-c4nnc(C(F)F)o4)cn3)c3ccc(-c4cccc(F)c4)cc32)CC1 [Compound 133, 1-((5-(5-(difluoromethyl)-1,3,4-oxadiazole-2-yl)pyridine-2-yl)methyl)-5-(3-fluorophenyl)-3-(1-methylpiperidine-4-yl)-1,3-dihydro-2H-benzo[d]imidazole-2-one]
20 | 20 nM | > 10000 nM | CN1CCC(n2c(=O)n(Cc3ccc(-c4nnc(C(F)F)o4)cn3)c3ccc(-c4ccccc4F)cc32)CC1 [Compound 134, 1-((5-(5-(difluoromethyl)-1,3,4-oxadiazole-2-yl)pyridine-2-yl)methyl)-5-(2-fluorophenyl)-3-(1-methylpiperidine-4-yl)-1,3-dihydro-2H-benzo[d]imidazole-2-one]
